US12448389B2, “BRM targeting compounds and associated methods of use” (Prelude Therapeutics Incorporated, priority 2020, dated 2025)

Assays:
SMARCA2-HiBiT = biological target: T1, SMARCA2-HiBiT (Homo sapiens, UniProt P51531); assay: SMARCA2 HiBiT degradation assay in HeLa cells; format: cell-based; conditions: 18 hours incubation; for DC50: read-out: HeLa_HiBit-SM2 DC50; for Dmax: HeLa, read-out: HeLa-HiBit-SM2 Dmax (%)
T1 construct: SMARCA2-HiBiT knock-in Hela monoclonal cell (CS302366); host or cells: HeLa monoclonal knock-in line (CRISPR HiBiT knock-in at the endogenous locus, heterozygous)
T1 sequence (P51531 whole entry): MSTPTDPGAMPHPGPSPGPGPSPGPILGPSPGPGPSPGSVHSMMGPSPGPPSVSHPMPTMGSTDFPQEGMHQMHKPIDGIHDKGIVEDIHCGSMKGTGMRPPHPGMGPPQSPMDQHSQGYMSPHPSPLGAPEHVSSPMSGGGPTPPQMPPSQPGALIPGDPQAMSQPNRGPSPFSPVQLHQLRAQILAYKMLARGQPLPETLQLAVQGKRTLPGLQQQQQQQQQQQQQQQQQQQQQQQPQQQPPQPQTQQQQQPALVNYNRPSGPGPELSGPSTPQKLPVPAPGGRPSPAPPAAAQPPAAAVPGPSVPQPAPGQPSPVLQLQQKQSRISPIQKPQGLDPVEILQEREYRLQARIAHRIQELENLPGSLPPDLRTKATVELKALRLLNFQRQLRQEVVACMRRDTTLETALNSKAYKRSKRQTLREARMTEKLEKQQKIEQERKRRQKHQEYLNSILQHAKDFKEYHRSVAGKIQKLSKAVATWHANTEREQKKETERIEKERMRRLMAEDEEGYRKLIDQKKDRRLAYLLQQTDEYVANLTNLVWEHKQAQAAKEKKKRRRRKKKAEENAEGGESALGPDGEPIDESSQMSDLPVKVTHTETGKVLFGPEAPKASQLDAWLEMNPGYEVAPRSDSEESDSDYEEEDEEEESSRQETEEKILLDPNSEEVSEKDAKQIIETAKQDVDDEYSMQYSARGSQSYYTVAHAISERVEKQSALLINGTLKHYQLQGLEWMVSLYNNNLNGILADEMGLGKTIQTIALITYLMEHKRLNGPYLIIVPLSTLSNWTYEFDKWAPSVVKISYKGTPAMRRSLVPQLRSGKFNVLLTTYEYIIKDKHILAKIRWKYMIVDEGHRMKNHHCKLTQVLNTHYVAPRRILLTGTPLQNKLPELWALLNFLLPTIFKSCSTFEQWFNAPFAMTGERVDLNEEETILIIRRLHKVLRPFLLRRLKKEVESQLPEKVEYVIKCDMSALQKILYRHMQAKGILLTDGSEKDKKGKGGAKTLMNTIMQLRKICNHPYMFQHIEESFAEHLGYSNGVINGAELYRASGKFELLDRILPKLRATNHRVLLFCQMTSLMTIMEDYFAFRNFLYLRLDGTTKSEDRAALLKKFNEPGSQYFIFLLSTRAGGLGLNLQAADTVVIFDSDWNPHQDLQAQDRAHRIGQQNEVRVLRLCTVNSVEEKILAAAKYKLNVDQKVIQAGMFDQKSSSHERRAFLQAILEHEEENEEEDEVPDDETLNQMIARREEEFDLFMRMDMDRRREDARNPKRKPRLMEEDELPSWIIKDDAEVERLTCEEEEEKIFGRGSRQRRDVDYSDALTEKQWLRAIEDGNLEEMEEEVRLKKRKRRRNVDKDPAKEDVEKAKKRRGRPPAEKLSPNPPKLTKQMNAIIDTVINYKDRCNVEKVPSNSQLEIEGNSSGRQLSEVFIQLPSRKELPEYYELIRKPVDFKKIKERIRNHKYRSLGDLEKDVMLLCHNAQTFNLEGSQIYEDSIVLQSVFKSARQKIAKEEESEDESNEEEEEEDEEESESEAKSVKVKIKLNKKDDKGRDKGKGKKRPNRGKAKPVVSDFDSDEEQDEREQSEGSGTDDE
Outline: (§1)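 HeLa monoclonal lines with heterozygous HiBiT knock-in were seeded at 2500 cells/well in EMEM with 10% FBS and treated with compound for 18 h at 37 °C. Remaining tagged protein was measured by Nano-Glo HiBiT lytic luminescence after 30–60 min at RT, and values came from curve fitting.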

SMARCA4-HiBiT = biological target: T2, SMARCA4-HiBiT (Homo sapiens, UniProt P51532); assay: SMARCA4 HiBiT degradation assay in HeLa cells; format: cell-based; conditions: 18 hours incubation; for DC50: read-out: HeLa-HiBit-SM4 DC50; for Dmax: HeLa, read-out: HeLa-HiBit-SM4 Dmax (%)
T2 construct: SMARCA4-HiBiT knock-in Hela monoclonal cell (CS3023226); host or cells: HeLa monoclonal knock-in line (CRISPR HiBiT knock-in at the endogenous locus, heterozygous)
T2 sequence (P51532 whole entry): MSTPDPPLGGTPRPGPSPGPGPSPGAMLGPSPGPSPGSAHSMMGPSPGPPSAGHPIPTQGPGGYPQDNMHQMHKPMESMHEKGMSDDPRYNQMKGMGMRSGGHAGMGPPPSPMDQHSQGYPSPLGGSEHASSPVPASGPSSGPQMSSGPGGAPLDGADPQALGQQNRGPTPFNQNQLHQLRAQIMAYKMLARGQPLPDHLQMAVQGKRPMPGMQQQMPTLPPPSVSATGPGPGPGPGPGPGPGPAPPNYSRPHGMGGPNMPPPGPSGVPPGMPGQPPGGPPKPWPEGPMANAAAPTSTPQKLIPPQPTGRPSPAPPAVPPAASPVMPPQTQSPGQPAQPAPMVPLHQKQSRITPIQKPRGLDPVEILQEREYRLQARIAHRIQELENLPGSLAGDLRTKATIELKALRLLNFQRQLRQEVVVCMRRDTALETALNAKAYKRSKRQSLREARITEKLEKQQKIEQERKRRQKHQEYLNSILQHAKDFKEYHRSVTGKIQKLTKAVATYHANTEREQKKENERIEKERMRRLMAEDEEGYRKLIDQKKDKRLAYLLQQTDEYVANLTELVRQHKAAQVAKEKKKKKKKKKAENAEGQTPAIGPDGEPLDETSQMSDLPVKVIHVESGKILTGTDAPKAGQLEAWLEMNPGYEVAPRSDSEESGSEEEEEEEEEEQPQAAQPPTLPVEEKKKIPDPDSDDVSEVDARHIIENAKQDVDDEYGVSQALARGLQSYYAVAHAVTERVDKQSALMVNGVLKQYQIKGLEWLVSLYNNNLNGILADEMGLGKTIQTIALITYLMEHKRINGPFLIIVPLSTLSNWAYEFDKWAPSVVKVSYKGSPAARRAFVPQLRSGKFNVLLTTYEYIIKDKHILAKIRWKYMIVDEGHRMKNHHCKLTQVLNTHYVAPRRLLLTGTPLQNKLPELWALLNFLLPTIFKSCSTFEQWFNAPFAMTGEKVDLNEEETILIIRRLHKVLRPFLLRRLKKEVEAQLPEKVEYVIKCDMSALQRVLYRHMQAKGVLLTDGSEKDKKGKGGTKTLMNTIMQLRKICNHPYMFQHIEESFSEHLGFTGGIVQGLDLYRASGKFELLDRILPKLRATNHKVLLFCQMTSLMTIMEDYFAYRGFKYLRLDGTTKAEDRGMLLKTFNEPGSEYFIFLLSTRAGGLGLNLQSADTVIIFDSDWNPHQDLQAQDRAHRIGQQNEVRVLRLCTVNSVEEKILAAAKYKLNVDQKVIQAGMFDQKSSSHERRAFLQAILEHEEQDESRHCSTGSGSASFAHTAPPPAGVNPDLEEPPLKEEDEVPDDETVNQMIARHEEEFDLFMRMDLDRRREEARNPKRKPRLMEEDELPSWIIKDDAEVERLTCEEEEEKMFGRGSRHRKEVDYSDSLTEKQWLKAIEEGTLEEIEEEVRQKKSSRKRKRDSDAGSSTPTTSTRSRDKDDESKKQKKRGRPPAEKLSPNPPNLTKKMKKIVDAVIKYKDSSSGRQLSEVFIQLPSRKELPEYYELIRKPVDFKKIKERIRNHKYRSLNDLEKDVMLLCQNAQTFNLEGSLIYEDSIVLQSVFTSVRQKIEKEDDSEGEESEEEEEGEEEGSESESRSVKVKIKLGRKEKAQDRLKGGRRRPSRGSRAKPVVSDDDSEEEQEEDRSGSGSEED
Outline: as §1

DC50 (SMARCA2-HiBiT)	Dmax (SMARCA2-HiBiT)	DC50 (SMARCA4-HiBiT)	Dmax (SMARCA4-HiBiT)	SMILES
< 10 nM	> 85%	< 10 nM	> 85%	O=C1CCC(N2C(=O)c3ccc(NCCN4CCC(N5CCN6c7cc(-c8cc(F)ccc8O)nnc7NC[C@H]6C5)CC4)cc3C2=O)C(=O)N1 (stereo partly drawn) [Example 242, 2-(2,6-dioxopiperidin-3-yl)-5-((2-(4-((S)-2-(5-fluoro-2-hydroxyphenyl)-5,6,6a,7,9,10-hexahydro-8H-pyrazino[1′,2′:4,5]pyrazino[2,3-c]pyridazin-8-yl)piperidin-1-yl)ethyl)amino)isoindoline-1,3-dione]
< 10 nM	> 85%	< 10 nM	> 85%	O=C1CCC(N2Cc3cc(C4CCN(C5CCN(CCCN6CCN7c8cc(-c9ccccc9O)nnc8NC[C@H]7C6)CC5)CC4)ccc3C2=O)C(=O)N1 (stereo partly drawn) [Example 209, 3-(5-(1′-(3-((S)-2-(2-hydroxyphenyl)-5,6,6a,7,9,10-hexahydro-8H-pyrazino[1′,2′:4,5]pyrazino[2,3-c]pyridazin-8-yl)propyl)-[1,4′-bipiperidin]-4-yl)-1-oxoisoindolin-2-yl)piperidine-2,6-dione]
< 10 nM	> 85%	< 10 nM	> 85%	O=C1CCC(N2C(=O)c3ccc(N4CCC(CN5CCC(CN6CCN7c8cc(-c9ccccc9O)nnc8NC[C@H]7C6)CC5)C(F)(F)C4)cc3C2=O)C(=O)N1 (stereo partly drawn) [Example 181, 5-[3,3-difluoro-4-[[4-[[(10S)-4-(2-hydroxyphenyl)-1,5,6,8,12-pentazatricyclo[8.4.0.02,7]tetradeca-2,4,6-trien-12-yl]methyl]piperidin-1-yl]mehtyl]piperidin-1-yl]-2-(2,6-dioxopiperidin-3-yl) isoindoline-1,3-dione]
< 10 nM	> 85%	< 10 nM	> 85%	CN(C(=O)N1CCN2c3cc(-c4ccccc4O)nnc3NC[C@H]2C1)C1CCN(CC2CCN(c3ccc4c(c3)C(=O)N(C3CCC(=O)NC3=O)C4=O)CC2)CC1 (stereo partly drawn) [Example 138, (6aS)-N-(1-((1-(2-(2,6-dioxopiperidin-3-yl)-1,3-dioxoisoindolin-5-yl)piperidin-4-yl)methyl)piperidin-4-yl)-2-(2-hydroxyphenyl)-N-methyl-5,6,6a,7,9,10-hexahydro-8H-pyrazino[1′,2′:4,5]pyrazino[2,3-c]pyridazine-8-carboxamide]
< 10 nM	> 85%	< 10 nM	50 to 75%	C[C@H]1CN2c3cc(-c4ccccc4O)nnc3NC[C@H]2CN1C[C@H]1[C@@H]2CN(CC3CCN(c4ccc5c(c4)C(=O)N(C4CCC(=O)NC4=O)C5=O)C[C@@H]3F)C[C@@H]21 (stereo in doubt) [Example 199, 2-(2,6-dioxopiperidin-3-yl)-5-[(3R,4R)-3-fluoro-4-[[(1S,5R)-6-[[(10S,13S)-4-(2-hydroxyphenyl)-13-methyl-1,5,6,8,12-pentazatricyclo [8.4.0.02,7]tetradeca-2(7),3,5-trien-12-yl]methyl]-3-azabicyclo [3.1.0]hexan-3-yl]methyl]piperidin-1-yl]isoindole-1,3-dione]
< 10 nM	> 85%	< 10 nM	> 85%	O=C1CCC(N2C(=O)c3ccc(N4CCC(CN5CCC(CN6CCN7c8cc(-c9ccccc9O)nnc8NC[C@H]7C6)CC5)CC4)cc3C2=O)C(=O)N1COP(=O)(O)O (stereo partly drawn) [Example 129, (3-(5-(4-((4-(((S)-2-(2-hydroxyphenyl)-5,6,6a,7,9,10-hexahydro-8H-pyrazino[1′,2′:4,5]pyrazino[2,3-c]pyridazin-8-yl)methyl)piperidin-1-yl)methyl)piperidin-1-yl)-1,3-dioxoisoindolin-2-yl)-2,6-dioxopiperidin-1-yl)methyl) dihydrogen phosphate]
< 10 nM	> 85%	< 10 nM	75 to 85%	O=C1CCC(N2C(=O)c3ccc(N4CCO[C@H](CN5C[C@@H]6[C@H](C5)[C@H]6CN5CCN6c7cc(-c8ccccc8O)nnc7NC[C@H]6C5)C4)cc3C2=O)C(=O)N1 (stereo partly drawn) [Example 52, 2-(2,6-dioxopiperidin-3-yl)-5-((R)-2-(((1R,5S,6S)-6-(((S)-2-(2-hydroxyphenyl)-5,6,6a,7,9,10-hexahydro-8H-pyrazino[1′,2′:4,5]pyrazino[2,3-c]pyridazin-8-yl)methyl)-3-azabicyclo[3.1.0]hexan-3-yl)methyl)morpholino)isoindoline-1,3-dione]
< 10 nM	75 to 85%	< 10 nM	75 to 85%	O=C1CCC(N2C(=O)c3ccc(N4CCC(CN5CCO[C@H](CN6CCN7c8cc(-c9ccccc9O)nnc8NC[C@H]7C6)C5)CC4)cc3C2=O)C(=O)N1 (stereo partly drawn) [Example 75, 2-(2,6-dioxopiperidin-3-yl)-5-(4-(((R)-2-(((S)-2-(2-hydroxyphenyl)-5,6,6a,7,9,10-hexahydro-8H-pyrazino[1′,2′:4,5]pyrazino[2,3-c]pyridazin-8-yl)methyl)morpholino)methyl)piperidin-1-yl)isoindoline-1,3-dione]
< 10 nM	> 85%	< 10 nM	75 to 85%	O=C1CCC(N2Cc3ccc(N4CCC(CN5CCC(OC(=O)N6CCN7c8cc(-c9ccccc9O)nnc8NC[C@H]7C6)CC5)CC4)cc3C2=O)C(=O)N1 (stereo partly drawn) [Example 85, l-((l-(2-(2,6-dioxopiperidin-3-yl)-3-oxoisoindolin-5-yl)piperidin-4-yl)methyl)piperidin-4-yl (6aS)-2-(2-hydroxyphenyl)-5,6,6a,7,9,10-hexahydro-8H-pyrazino[1′,2′:4,5]pyrazino[2,3-c]pyridazine-8-carboxylate]
< 10 nM	75 to 85%	< 10 nM	75 to 85%	O=C1CCC(N2C(=O)c3ccc(N4CC(CCN5CCC(CN6CCN7c8cc(-c9ccccc9O)nnc8NC[C@H]7C6)CC5)C4)cc3C2=O)C(=O)N1 (stereo partly drawn) [Example 275, 2-(2,6-dioxopiperidin-3-yl)-5-(3-(2-(4-(((S)-2-(2-hydroxyphenyl)-5,6,6a,7,9,10-hexahydro-8H-pyrazino[1′,2′:4,5]pyrazino[2,3-c]pyridazin-8-yl)methyl)piperidin-1-yl)ethyl)azetidin-1-yl)isoindoline-1,3-dione]
< 10 nM	50 to 75%	< 10 nM	50 to 75%	O=C1CCC(N2C(=O)c3ccc(N4CCC(CCN5C[C@@H]6[C@H](C5)[C@H]6CN5CCN6c7cc(-c8ccccc8O)nnc7NC[C@H]6C5)CC4)cc3C2=O)C(=O)N1 (stereo partly drawn) [Example 152, 2-(2,6-dioxopiperidin-3-yl)-5-(4-(2-((1R,5S,6r)-6-(((S)-2-(2-hydroxyphenyl)-5,6,6a,7,9,10-hexahydro-8H-pyrazino[1′,2′:4,5]pyrazino[2,3-c]pyridazin-8-yl)methyl)-3-azabicyclo[3.1.0]hexan-3-yl)ethyl)piperidin-1-yl)isoindoline-1,3-dione]

SMILES	DC50 (SMARCA2-HiBiT)	Dmax (SMARCA2-HiBiT)	DC50 (SMARCA4-HiBiT)	Dmax (SMARCA4-HiBiT)
O=C1CCC(N2Cc3ccc(N4CCC(CN5C6CCC5CN(C(=O)N5CCN7c8cc(-c9ccccc9O)nnc8NC[C@H]7C5)C6)CC4)cc3C2=O)C(=O)N1 (stereo partly drawn) [Example 103, 3-(6-(4-((3-((S)-2-(2-hydroxyphenyl)-6,6a,7,8,9,10-hexahydro-5H-pyrazino[1′,2′:4,5]pyrazino[2,3-c]pyridazine-8-carbonyl)-3,8-diazabicyclo[3.2.1]octan-8-yl)methyl)piperidin-1-yl)-1-oxoisoindolin-2-yl)piperidine-2,6-dione]	< 10 nM	75 to 85%	10 to 100 nM	75 to 85%
